According to patent US12171229B2, “Heteroaryl-triazole and heteroaryl-tetrazole compounds as pesticides” (BAYER AKTIENGESELLSCHAFT, priority 2018, dated 2024):

Legend:
Format in all cases: in vivo
[1] = test system: Aedes aegypti strain MONHEIM; test: Aedes aegypti test (AEDSAE surface treatment & contact assay); conditions: 24 hours after contact, read-out: efficacy (mortality); for mortality at 4 mg/m2: surface concentration 4 mg/m^2, exposure 30 minutes; for mortality at 20 mg/m2: surface concentration 20 mg/m^2, exposure 30 minutes
In short: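 Compound dissolved in acetone (2 mg/ml) with 2000 ppm rapeseed oil methyl ester, applied to glazed tile and dried; adult strain MONHEIM mosquitoes exposed 30 minutes. Percent mortality scored 24 hours after contact.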

[2] = test system: cattle ticks (Boophilus microplus) strane Parhurst, SP-resistant; test: Boophilus microplus dip test; conditions: Rhipicephalus microplus, 168 h, engorged adult female cattle ticks, egg deposition after 7 days, read-out: efficacy (infertile eggs)
Experimental: Boophilus microplus—Dip Test
Test animal: cattle ticks (Boophilus microplus) strane Parhurst, SP-resistant
Solvent: dimethyl sulfoxide
To produce a suitable preparation of active compound, 10 mg of active compound are dissolved in 0.5 ml solvent, and the concentrate is diluted with water to the desired concentration.
This compound solution is pipetted into tubes. 8-10 engorged, adult, female cattle ticks (Boophilus microplus) are placed in perforated tubes. These tubes are immersed in the aqueous compound solution until the ticks are completely moistened. After the liquid has drained off, the ticks are transferred to a filter paper in a plastic tray and stored in a climate chamber.
After 7 days egg deposition of fertile eggs is monitored. Eggs where fertility is not visible are stored in a climate chamber till hatching after about 42 days. An efficacy of 100% means all eggs are infertile; 0% means all eggs are fertile.

[3] = test system: Anopheles funestus strain FUMOZ-R; test: Anopheles funestus test (ANPHFU surface treatment & contact assay); conditions: 24 hours after contact, read-out: efficacy (mortality); for mortality at 4 mg/m2: surface concentration 4 mg/m^2, exposure 30 minutes; for mortality at 20 mg/m2: surface concentration 20 mg/m^2, exposure 30 minutes
Experimental: Anopheles funestus Test (ANPHFU Surface Treatment & Contact Assay)
Solvent: Aceton+2000 ppm rapeseed oil methyl ester (RME)
In order to produce a sufficient, active ingredient containing solution it is necessary to solve the test compound in the solvent-mix (acetone at 2 mg/ml/RME 2000 ppm). This solution is pipetted onto a glazed tile and after evaporation of the acetone, adult mosquitoes of the species Anopheles funestus strain FUMOZ-R (Hunt et al., Med. Vet. Entomol. 2005 September; 19(3): 271-275) are placed onto the dried surface. The exposure time is 30 minutes.
Mortality in percent (%) is determined 24 hours after contact of the insects to the treated surface. 100% mortality means that all tested insects are dead, whereas 0% means that no insect died.

Diabrotica balteata = Diabrotica balteata spray test; conditions: Diabrotica balteata, in Triticum aestivum, 168 h, after 7 days, larvae on wheat seeds, read-out: efficacy (seedlings grown up); for pest or weed control at 80 µg/disc, 250 g/ha: 80 μg/well (=250 g/ha); for pest or weed control at 160 µg/disc, 500 g/ha: 160 μg/well (=500 g/ha)
In short: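 Scoring at 7 days compares seedling growth with untreated, uninfested controls (100% = equal growth, 0% = none grown). Wheat seedlings germinated 1 day on agar, 5 per well, received a spray of test solution made in 1000 ppm emulsifier water. Each unit then received 10–20 beetle larvae.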

Nilaparvata lugens = Nilaparvata lugens spray test; conditions: 336 h, after 14 days, rice plants
Experimental: Nilaparvata lugens—Spray Test
(§1) To produce a suitable preparation of active compound, 1 part by weight of active compound is mixed with the stated amount of solvents and is diluted with water, containing an emulsifier concentration of 1000 ppm, to the desired concentration. Further test concentrations are prepared by dilution with emulsifier containing water.
Rice plants (Oryza sativa) are sprayed with a preparation of the active ingredient of the desired concentration and the plants are infested with the brown planthopper (Nilaparvata lugens).
After 14 days mortality in % is determined. 100% means all planthoppers have been killed and 0% means none of the planthoppers have been killed.

Myzus persicae = Myzus persicae spray test; conditions: foliar, 120 h, after 5 days, Chinese cabbage leaf disks
In short: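 Percent kill was recorded 5 days after spraying. Test solutions, prepared with solvent and diluted in 1000 ppm emulsifier water, were applied to Brassica pekinensis leaf disks carrying mixed-instar green peach aphids.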

Tetranychus urticae = Tetranychus urticae spray test (OP-resistant); conditions: foliar, 144 h, after 6 days, French bean leaf disks
Experimental: Tetranychus urticae—Spray Test (OP-Resistant)
as §1
French bean (Phaseolus vulgaris) leaf disks infected with all instars of the two spotted spidermite (Tetranychus urticae), are sprayed with a preparation of the active ingredient of the desired concentration.
After 6 days mortality in % is determined. 100% means all spider mites have been killed and 0% means none of the spider mites have been killed.

Rhipicephalus sanguineus = Rhipicephalus sanguineus in-vitro contact test, adult brown dog ticks; conditions: 5 μg/cm^2 (=500 g/ha), after 48 hours, read-out: efficacy (ticks dead or moribund)
Experimental: Rhipicephalus Sanguineus—In-Vitro Contact Tests with Adult Brown Doe Ticks
9 mg compound is solved in 1 ml acetone and diluted with acetone to the desired concentration. 250 μl of the test solution is filled in 25 ml glass test tubes and homogeneously distributed on the inner walls by rotation and tilting on a shaking device (2 h at 30 rpm). With a compound concentration of 900 ppm, an inner surface of 44.7 cm^2 and a homogeneous distribution, a dose of 5 μg/cm^2 is achieved.
After the solvent has evaporated, each test tube is filled with 5-10 adult brown dog ticks (Rhipicephalus sanguineus), closed with a perforated lid and incubated in a lying position at room temperature and relative humidity. After 48 hours efficacy is determined. The ticks are patted on the ground of the tubes and are incubated on a heating plate at 45-50° C. for at most 5 minutes. Immotile or uncoordinated moving ticks, which are not able to escape the heat by climbing upwards, are marked as dead or moribund.
An efficacy of 100% means all ticks are dead or moribund; 0% means no ticks are dead or moribund.

SMILES	mortality at 4 mg/m2 [1] [%]	mortality at 20 mg/m2 [1] [%]	pest or weed control at 100 ppm [2] [%]	mortality at 4 mg/m2 [3] [%]	mortality at 20 mg/m2 [3] [%]	pest or weed control at 80 µg/disc, 250 g/ha (Diabrotica balteata) [%]	pest or weed control at 160 µg/disc, 500 g/ha (Diabrotica balteata) [%]	mortality at 500 g/ha (Nilaparvata lugens) [%]	mortality at 100 g/ha (Myzus persicae) [%]	mortality at 500 g/ha (Myzus persicae) [%]	mortality at 500 g/ha (Tetranychus urticae) [%]	pest or weed control at 5 µg/cm2 (Rhipicephalus sanguineus) [%]
C[C@H](NC(=O)c1cc(F)cc(C(F)(F)F)c1)c1ncnn1-c1ccc(C#N)cn1 [Example I-019]	90 to 100	90 to 100	100	85 to 100	90 to 100	100	100	–	–	–	–	–
C[C@H](NC(=O)c1cc(Cl)cc(C(F)(F)F)c1)c1ncnn1-c1ccc(NC(=O)C2CC2)cn1 [Example I-034, 3-chloro-N-[(1S)-1-(1-{5-[(cyclopropylcarbonyl)amino]pyridin-2-yl}-1H-1,2,4-triazol-5-yl)ethyl]-5-(trifluoromethyl)benzamide]	90 to 100	90 to 100	–	85 to 100	–	100	100	100	100	100	–	–
C[C@H](NC(=O)c1cc(F)cc(C#N)c1)c1ncnn1-c1ccc(C#N)cn1 [Example I-018]	90 to 100	90 to 100	–	85 to 100	90 to 100	100	100	–	–	–	–	–
C[C@H](NC(=O)c1cc(Cl)cc(C(F)(F)F)c1)c1ncnn1-c1ccc([N+](=O)[O-])cn1 [Example I-028]	90 to 100	90 to 100	100	85 to 100	90 to 100	100	100	–	–	–	–	–
C[C@H](NC(=O)c1cc(Cl)cc(OC(F)(F)F)c1)c1ncnn1-c1ccc(C#N)cn1 [Example I-041, 3-chloro-N-{(1S)-1-[1-(5-cyanopyridin-2-yl)-1H-1,2,4-triazol-5-yl]ethyl}-5-(trifluoromethoxy)benzamide]	90 to 100	90 to 100	100	85 to 100	90 to 100	100	100	90	–	–	–	–
C[C@H](NC(=O)c1cc(Cl)cc(S(F)(F)(F)(F)F)c1)c1ncnn1-c1ccc(C#N)cn1 [Example I-048]	90 to 100	90 to 100	–	85 to 100	–	100	100	100	–	–	–	–
C[C@H](NC(=O)c1cc(Cl)cc(SC(F)(F)F)c1)c1ncnn1-c1ccc(C#N)cn1 [Example I-042]	90 to 100	90 to 100	80	85 to 100	90 to 100	100	100	–	–	–	90	–
C[C@H](NC(=O)c1cc(C(F)(F)F)cc(C(F)(F)F)c1)c1ncnn1-c1ccc(C#N)cn1 [Example I-052]	90 to 100	90 to 100	–	85 to 100	–	100	100	–	–	90	–	100
C[C@H](NC(=O)c1cc(Cl)cc(C(F)(F)F)c1)c1ncnn1-c1ccc(C#N)cn1 [Example I-009]	90 to 100	90 to 100	100	–	–	100	–	–	–	90	–	100
Cc1nc([C@H](C)NC(=O)c2cc(Cl)cc(C(F)(F)F)c2)n(-c2ccc(C#N)cn2)n1 [Example I-049]	90 to 100	90 to 100	100	–	90 to 100	80	100	100	100	90	–	100
C[C@H](NC(=O)c1cc(Cl)cc(C(F)(F)F)c1)c1ncnn1-c1cc(C#N)ccn1 [Example I-015]	90 to 100	90 to 100	–	–	90 to 100	100	–	–	100	100	–	100
C[C@H](NC(=O)c1cc(Cl)cc(C(F)(F)F)c1)c1ncnn1-c1ncc(Cl)cc1F [Example I-013]	90 to 100	90 to 100	100	85 to 100	90 to 100	100	100	–	90	100	–	–
Cc1nc([C@H](C)NC(=O)c2cc(C(F)(F)F)cc(C(F)(F)F)c2)n(-c2ccc(C#N)cn2)n1 [Example I-056]	90 to 100	90 to 100	–	–	–	100	100	–	100	90	–	100
C[C@H](NC(=O)c1cc(Cl)cc(Br)c1)c1ncnn1-c1ccc(C#N)cn1 [Example I-046]	90 to 100	90 to 100	100	85 to 100	90 to 100	100	100	–	–	–	–	–
C[C@H](NC(=O)c1cc(Cl)cc(Cl)c1)c1ncnn1-c1ccc(C#N)cn1 [Example I-047]	90 to 100	90 to 100	100	85 to 100	90 to 100	100	100	–	–	–	–	–
